Measured values published in US9512142B2, “Tricyclic triazolic compounds” (LABORATORIOS DEL DR. ESTEVE S.A., priority 2013, dated 2016).
Converted amounts (≈) assume the structure as drawn.

tested on: not listed separately; test: Kinetic solubility; format: physicochemical; settings: aqueous buffer, kinetic from dmso stock; buffered aqueous solution at pH=7.4, 10 μL of 10 mM DMSO solution in 1 mL, stirred 4 hours, supernatant by liquid chromatography; read-out: Kin. Solub.
Experimental: To a buffered aqueous solution at pH=7.4 (1 mL), a 10 mM DMSO solution of the test compound (10 μL) was added and the mixture stirred for 4 hours. After centrifugation, the compound concentration in the supernatant was determined by liquid chromatography by fitting in a calibration curve of the compound.

Structure (SMILES) | solubility at 4 h [µM]
Cl.Fc1ccccc1-c1nnn2c1CO[C@@H]1CN(Cc3ccncc3)C[C@H]12 (racemic) [Example 2, (5aRS,8aRS)-3-(2-fluorophenyl)-7-(pyridin-4-ylmethyl)-4,5a,6,7,8,8a-hexahydropyrrolo[3,4-b][1,2,3]triazolo[1,5-d][1,4]oxazine hydrochloride] | > 10
Cl.Fc1ccccc1-c1nnn2c1CO[C@@H]1CN(Cc3ccccn3)C[C@H]12 (racemic) [Example 3, (5aRS,8aRS)-3-(2-fluorophenyl)-7-(pyridin-2-ylmethyl)-4,5a,6,7,8,8a-hexahydropyrrolo[3,4-b][1,2,3]triazolo[1,5-d][1,4]oxazine hydrochloride] | > 10
Cl.Fc1ccc(-c2nnn3c2CO[C@@H]2CN(Cc4ccoc4)C[C@H]23)cc1 (racemic) [Example 21, (5aRS,8aRS)-3-(4-fluorophenyl)-7-(furan-3-ylmethyl)-4,5a,6,7,8,8a-hexahydropyrrolo[3,4-b][1,2,3]triazolo[1,5-d][1,4]oxazine hydrochloride] | > 10
Cl.Fc1ccc(CN2C[C@@H]3[C@@H](C2)OCc2c(-c4ccncc4)nnn23)cc1 (racemic) [Example 26, (5aRS,8aRS)-7-(4-fluorobenzyl)-3-(pyridin-4-yl)-4,5a,6,7,8,8a-hexahydropyrrolo[3,4-b][1,2,3]triazolo[1,5-d][1,4]oxazine hydrochloride] | > 10
Cl.Fc1ccccc1-c1nnn2c1CO[C@@H]1CN(Cc3cccnc3)C[C@H]12 [Example 1, (5aR,8aR)-3-(2-fluorophenyl)-7-(pyridin-3-ylmethyl)-4,5a,6,7,8,8a-hexahydropyrrolo[3,4-b][1,2,3]triazolo[1,5-d][1,4]oxazine hydrochloride] | > 20
Cl.Fc1ccc(-c2nnn3c2CO[C@H]2CN(C4CCOCC4)C[C@@H]23)cc1 [Example 4, (5aS,8aS)-3-(4-fluorophenyl)-7-(tetrahydro-2H-pyran-4-yl)-4,5a,6,7,8,8a-hexahydropyrrolo[3,4-b][1,2,3]triazolo[1,5-d][1,4]oxazine hydrochloride] | > 10
Cl.Fc1ccccc1-c1nnn2c1CO[C@@H]1CN(C3CCOCC3)C[C@H]12 [Example 7, (5aR,8aR)-3-(2-fluorophenyl)-7-(tetrahydro-2H-pyran-4-yl)-4,5a,6,7,8,8a-hexahydropyrrolo[3,4-b][1,2,3]triazolo[1,5-d][1,4]oxazine hydrochloride] | > 10
COc1ccc(-c2nnn3c2CO[C@H]2CN(C4CCOCC4)C[C@@H]23)cn1.Cl [Example 8, (5aS,8aS)-3-(6-methoxypyridin-3-yl)-7-(tetrahydro-2H-pyran-4-yl)-4,5a,6,7,8,8a-hexahydropyrrolo[3,4-b][1,2,3]triazolo[1,5-d][1,4]oxazine hydrochloride] | > 10
Cl.Fc1ccc(CN2C[C@@H]3[C@@H](C2)OCc2c(-c4ccccc4F)nnn23)cn1 [Example 11, (5aR,8aR)-3-(2-fluorophenyl)-7-((6-fluoropyridin-3-yl)methyl)-4,5a,6,7,8,8a-hexahydropyrrolo[3,4-b][1,2,3]triazolo[1,5-d][1,4]oxazine hydrochloride] | > 10
Cl.Fc1ccc(CN2C[C@@H]3OCc4c(-c5ccccn5)nnn4[C@H]3C2)cc1 [Example 25, (5aS,8aS)-7-(4-fluorobenzyl)-3-(pyridin-2-yl)-4,5a,6,7,8,8a-hexahydropyrrolo[3,4-b][1,2,3]triazolo[1,5-d][1,4]oxazine hydrochloride] | > 10
Cl.Clc1ccc(-c2nnn3c2CO[C@@H]2CN(CC4CCOCC4)C[C@H]23)c(Cl)c1 [Example 44, (5aR,8aR)-3-(2,4-dichlorophenyl)-7-((tetrahydro-2H-pyran-4-yl)methyl)-4,5a,6,7,8,8a-hexahydropyrrolo[3,4-b][1,2,3]triazolo[1,5-d][1,4]oxazine hydrochloride] | > 10
Cl.Fc1ccc(CN2C[C@@H]3[C@@H](C2)OCc2c(C4CCOCC4)nnn23)cc1 [Example 64, (5aR,8aR)-7-(4-fluorobenzyl)-3-(tetrahydro-2H-pyran-4-yl)-4,5a,6,7,8,8a-hexahydropyrrolo[3,4-b][1,2,3]triazolo[1,5-d][1,4]oxazine hydrochloride] | > 10

same assay, conditions: buffered aqueous solution at pH=7.4, 10 μL of 10 mM DMSO solution in 1 mL, stirred 4 hours, supernatant by liquid chromatography; read-out: Kin. Solub.

solubility at 4 h [µM] | Structure (SMILES)
3.9 (≈ 1.44 µg/mL) | Fc1ccc(CN2C[C@@H]3[C@@H](C2)OCc2c(-c4cccc(F)c4)nnn23)cc1 [drawing 121, reference compound]

same assay, conditions: buffered aqueous solution, pH 7.4, aqueous buffer, kinetic from dmso stock, buffered aqueous solution at pH=7.4, 10 μL of 10 mM DMSO solution in 1 mL, stirred 4 hours, supernatant by liquid chromatography; read-out: Kin. Solub.

solubility at 4 h [µM] | Structure (SMILES)
> 10 | Cl.Fc1ccccc1-c1nnn2c1CO[C@H]1CN(C3CCOCC3)C[C@@H]12 [Example 6, (5aS,8aS)-3-(2-fluorophenyl)-7-(tetrahydro-2H-pyran-4-yl)-4,5a,6,7,8,8a-hexahydropyrrolo[3,4-b][1,2,3]triazolo[1,5-d][1,4]oxazine hydrochloride]
> 10 | CCOc1ccc(CN2C[C@@H]3OCc4c(-c5ccccc5F)nnn4[C@H]3C2)cn1.Cl [Example 20, (5aS,8aS)-7-((6-ethoxypyridin-3-yl)methyl)-3-(2-fluorophenyl)-4,5a,6,7,8,8a-hexahydropyrrolo[3,4-b][1,2,3]triazolo[1,5-d][1,4]oxazine hydrochloride]
> 10 | Cl.Fc1ccc(CN2C[C@@H]3[C@@H](C2)OCc2c(-c4ccccn4)nnn23)cc1 [Example 24, (5aR,8aR)-7-(4-fluorobenzyl)-3-(pyridin-2-yl)-4,5a,6,7,8,8a-hexahydropyrrolo[3,4-b][1,2,3]triazolo[1,5-d][1,4]oxazine hydrochloride]
> 10 | Cl.Fc1ccc(-c2nnn3c2CO[C@@H]2CN(C4CCOCC4)C[C@H]23)c(F)c1 [Example 28, (5aR,8aR)-3-(2,4-difluorophenyl)-7-(tetrahydro-2H-pyran-4-yl)-4,5a,6,7,8,8a-hexahydropyrrolo[3,4-b][1,2,3]triazolo[1,5-d][1,4]oxazine hydrochloride]
> 10 | Cl.Fc1ccc(-c2nnn3c2CO[C@@H]2CN(CCC4CCOCC4)C[C@H]23)c(F)c1 [Example 40, (5aR,8aR)-3-(2,4-difluorophenyl)-7-(2-(tetrahydro-2H-pyran-4-yl)ethyl)-4,5a,6,7,8,8a-hexahydropyrrolo[3,4-b][1,2,3]triazolo[1,5-d][1,4]oxazine hydrochloride]
> 10 | Cl.Fc1ccc(-c2nnn3c2CO[C@H]2CN(CCC4CCOCC4)C[C@@H]23)c(F)c1 [Example 41, (5aS,8aS)-3-(2,4-difluorophenyl)-7-(2-(tetrahydro-2H-pyran-4-yl)ethyl)-4,5a,6,7,8,8a-hexahydropyrrolo[3,4-b][1,2,3]triazolo[1,5-d][1,4]oxazine hydrochloride]
3.4 (≈ 1.25 µg/mL) | Fc1ccc(CN2C[C@@H]3[C@@H](C2)OCc2c(-c4cccc(F)c4)nnn23)cc1 [drawing 113, reference compound]
1.82 (≈ 0.638 µg/mL) | Fc1ccc(-c2nnn3c2CO[C@@H]2CN(Cc4ccccc4)C[C@H]23)cc1 [reference compound]
2.13 (≈ 0.823 µg/mL) | Fc1ccc(CN2C[C@@H]3[C@@H](C2)OCc2c(-c4ccc(F)cc4F)nnn23)cc1 [reference compound]
0.93 (≈ 0.341 µg/mL) | Clc1ccc(-c2nnn3c2COC2CN(Cc4ccccc4)C[C@H]23)cc1 (stereo partly shown) [reference compound]
7.8 (≈ 3.13 µg/mL) | Clc1ccc(-c2nnn3c2CO[C@@H]2CN(Cc4ccccc4)C[C@H]23)c(Cl)c1 [reference compound]
< 0.4 | FC(F)(F)c1ccc(-c2nnn3c2COC2CN(Cc4ccccc4)C[C@H]23)cc1 (stereo partly shown) [reference compound]
2.1 (≈ 0.761 µg/mL) | COc1ccc(-c2nnn3c2CO[C@H]2CN(Cc4ccccc4)C[C@@H]23)cc1 [reference compound]
3.08 (≈ 1.13 µg/mL) | Fc1ccc(CN2C[C@@H]3OCc4c(-c5ccccc5F)nnn4[C@H]3C2)cc1 [reference compound]
< 1 | Clc1cc(Cl)nc(N2CC3OCc4c(-c5ccccc5)nnn4[C@@H]3C2)n1 (stereo partly shown) [reference compound]

Structure (SMILES) | solubility at 4 h [µM]
Cl.Fc1ccc(-c2nnn3c2CO[C@@H]2CN(C4CCOCC4)C[C@H]23)cc1 [Example 5, (5aR,8aR)-3-(4-fluorophenyl)-7-(tetrahydro-2H-pyran-4-yl)-4,5a,6,7,8,8a-hexahydropyrrolo[3,4-b][1,2,3]triazolo[1,5-d][1,4]oxazine hydrochloride] | > 10
Cl.Clc1ccc(-c2nnn3c2CO[C@H]2CN(CC4CCOCC4)C[C@@H]23)c(Cl)c1 [Example 45, (5aS,8aS)-3-(2,4-dichlorophenyl)-7-((tetrahydro-2H-pyran-4-yl)methyl)-4,5a,6,7,8,8a-hexahydropyrrolo[3,4-b][1,2,3]triazolo[1,5-d][1,4]oxazine hydrochloride] | > 10
Cl.Fc1ccc(CN2C[C@@H]3OCc4c(C5CCOCC5)nnn4[C@H]3C2)cc1 [Example 65, (5aS,8aS)-7-(4-fluorobenzyl)-3-(tetrahydro-2H-pyran-4-yl)-4,5a,6,7,8,8a-hexahydropyrrolo[3,4-b][1,2,3]triazolo[1,5-d][1,4]oxazine hydrochloride] | > 10

biological target: T1, human sigma 1 receptor (Homo sapiens, UniProt Q99720); test: Human sigma 1 receptor radioligand assay ([3H](+)-pentazocine, transfected HEK-293 membranes); format: binding; settings: 5 nM [3H](+)-pentazocine, transfected HEK-293 membranes, 37° C., 120 minutes; read-out: Ki
T1 construct: expressed in transfected cells; host or cells: HEK-293
T1 sequence (Q99720 whole entry): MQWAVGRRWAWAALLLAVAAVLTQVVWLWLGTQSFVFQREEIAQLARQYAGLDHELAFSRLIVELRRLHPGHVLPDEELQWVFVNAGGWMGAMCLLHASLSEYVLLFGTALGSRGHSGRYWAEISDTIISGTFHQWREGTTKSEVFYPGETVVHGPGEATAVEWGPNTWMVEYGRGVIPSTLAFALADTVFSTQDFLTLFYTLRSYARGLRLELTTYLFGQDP
Experimental: Human Sigma 1 Receptor Radioligand Assay
The assay was carried out with 7 μg of membrane suspension, 5 nM of [^3H](+)-pentazocine in either absence or presence of either buffer or 10 μM Haloperidol for total and non-specific binding, respectively. Binding buffer contained Tris-HCl 50 mM at pH 8. Plates were incubated at 37° C. for 120 minutes. After the incubation period, the reaction mix was then transferred to MultiScreen HTS, FC plates (Millipore), filtered and plates were washed 3 times with ice-cold 10 mM Tris-HCL (pH7.4). Filters were dried and counted at approximately 40% efficiency in a MicroBeta scintillation counter (Perkin-Elmer) using EcoScint liquid scintillation cocktail.

Structure (SMILES) | Ki [nM]
Cl.Fc1ccccc1-c1nnn2c1CO[C@@H]1CN(Cc3ccncc3)C[C@H]12 (racemic) [Example 2, (5aRS,8aRS)-3-(2-fluorophenyl)-7-(pyridin-4-ylmethyl)-4,5a,6,7,8,8a-hexahydropyrrolo[3,4-b][1,2,3]triazolo[1,5-d][1,4]oxazine hydrochloride] | 315
Cl.Fc1ccc(-c2nnn3c2CO[C@@H]2CN(Cc4ccoc4)C[C@H]23)cc1 (racemic) [Example 21, (5aRS,8aRS)-3-(4-fluorophenyl)-7-(furan-3-ylmethyl)-4,5a,6,7,8,8a-hexahydropyrrolo[3,4-b][1,2,3]triazolo[1,5-d][1,4]oxazine hydrochloride] | 16.6
Cl.Fc1ccc(CN2C[C@@H]3[C@@H](C2)OCc2c(-c4ccncc4)nnn23)cc1 (racemic) [Example 26, (5aRS,8aRS)-7-(4-fluorobenzyl)-3-(pyridin-4-yl)-4,5a,6,7,8,8a-hexahydropyrrolo[3,4-b][1,2,3]triazolo[1,5-d][1,4]oxazine hydrochloride] | 133
Cl.Fc1ccc(-c2nnn3c2CO[C@H]2CN(C4CCOCC4)C[C@@H]23)cc1 [Example 4, (5aS,8aS)-3-(4-fluorophenyl)-7-(tetrahydro-2H-pyran-4-yl)-4,5a,6,7,8,8a-hexahydropyrrolo[3,4-b][1,2,3]triazolo[1,5-d][1,4]oxazine hydrochloride] | 23
COc1ccc(-c2nnn3c2CO[C@H]2CN(C4CCOCC4)C[C@@H]23)cn1.Cl [Example 8, (5aS,8aS)-3-(6-methoxypyridin-3-yl)-7-(tetrahydro-2H-pyran-4-yl)-4,5a,6,7,8,8a-hexahydropyrrolo[3,4-b][1,2,3]triazolo[1,5-d][1,4]oxazine hydrochloride] | 227
Cl.Fc1ccc(CN2C[C@@H]3[C@@H](C2)OCc2c(-c4ccccc4F)nnn23)cn1 [Example 11, (5aR,8aR)-3-(2-fluorophenyl)-7-((6-fluoropyridin-3-yl)methyl)-4,5a,6,7,8,8a-hexahydropyrrolo[3,4-b][1,2,3]triazolo[1,5-d][1,4]oxazine hydrochloride] | 241
